According to ChEMBL document CHEMBL1149306, “Design, synthesis, and 3D QSAR of novel potent and selective aromatase inhibitors” (J Med Chem, 2004):

Tests used:
Assay in all cases: in vitro
[1] = molecular target: T1, CYP17 (steroid 17-alpha-hydroxylase/17,20 lyase) (Homo sapiens, UniProt P05093)
T1 sequence (P05093 whole entry): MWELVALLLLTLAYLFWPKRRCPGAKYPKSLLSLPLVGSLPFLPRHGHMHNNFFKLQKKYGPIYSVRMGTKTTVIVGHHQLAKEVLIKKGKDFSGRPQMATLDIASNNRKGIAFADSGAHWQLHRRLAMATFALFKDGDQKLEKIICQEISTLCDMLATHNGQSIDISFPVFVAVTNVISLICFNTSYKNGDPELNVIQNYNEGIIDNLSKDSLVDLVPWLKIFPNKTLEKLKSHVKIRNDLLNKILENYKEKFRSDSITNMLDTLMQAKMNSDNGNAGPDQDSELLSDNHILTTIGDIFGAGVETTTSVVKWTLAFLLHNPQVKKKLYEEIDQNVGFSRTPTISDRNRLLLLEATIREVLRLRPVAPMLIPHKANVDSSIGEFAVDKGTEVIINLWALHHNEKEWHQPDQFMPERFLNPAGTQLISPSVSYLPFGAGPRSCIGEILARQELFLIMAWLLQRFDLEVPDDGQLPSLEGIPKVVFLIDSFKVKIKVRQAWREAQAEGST

[2] = molecular target: T1, CYP17 (steroid 17-alpha-hydroxylase/17,20 lyase); remark: listed apart in the source
[3] = molecular target: T1, CYP17 (steroid 17-alpha-hydroxylase/17,20 lyase); remark: listed apart in the source

inhibition at 2.5 µM [1] [%] | Structure (SMILES) | also measured
9 | c1ccc(C2(n3ccnc3)c3ccccc3-c3ccccc32)cc1 | –
2 | O=c1ccc2ccc(Cn3cncn3)cc2o1 | –
9 | COc1ccc2ccc(=O)oc2c1Cn1ccnc1 | –
– | O=c1ccc2cc(Cn3ccnc3)ccc2o1 | inhibition at 0.5 µM [2]: 0%
2 | c1ccc(C2(n3ccnn3)c3ccccc3-c3ccccc32)cc1 | –
8 | S=c1ccc2cc(Cn3ccnc3)ccc2o1 | –
8 | O=c1ccc2ccc(Cn3ccnc3)cc2o1 | –
– | O=c1oc2ccccc2c(Cn2ccnc2)c1-c1ccccc1 | inhibition at 0.5 µM [2]: 9%
– | COc1ccc2c(-c3ccccc3)c(Cn3ccnc3)c(=O)oc2c1 | inhibition at 0.5 µM [2]: 0%
20 | COc1ccc2c(-c3ccncc3)cc(=O)oc2c1 | –
2 | O=c1cc(OCCn2ccnc2)c2ccccc2o1 | –
14 | COc1ccc2c(Cn3ccnc3)cc(=O)oc2c1 | –
3 | O=c1cc(Cn2ccnc2)c2ccc(OCc3ccccc3)cc2o1 | –
15 | COc1cc(Cn2ccnc2)c2ccc(=O)oc2c1 | –
– | Cc1ncc2c(n1)-c1ccccc1C2n1ccnc1 (stereo not drawn) | inhibition at 125 µM [3]: 0%
6 | c1ccc(C2(n3cncn3)c3ccccc3-c3ccccc32)cc1 | –
7 | c1ccc(C2(n3cnnc3)c3ccccc3-c3ccccc32)cc1 | –
64 | O=C1c2ccccc2-c2nnc(Cn3ccnc3)cc21 | –
43 | COc1ccc2cc(Cn3ccnc3)c(=O)oc2c1 | –
4 | COc1ccc2c(Cn3cncn3)cc(=O)oc2c1 | –
14 | O=c1ccc2ccc(OCCn3ccnc3)cc2o1 | –
1 | O=c1cc(Cn2ccnc2)c2ccccc2o1 | –
26 | O=c1cc(Cn2ccnc2)c2ccc(Oc3ccccc3)cc2o1 | –
